Entries after “also recorded” stand apart in the source; their conditions may differ. Read-outs that look alike come from different tables or passages of the source.
Legend:
B16F10 [1] = format: in vivo, mice; conditions: for reduction of B16F10 melanoma growth compared with vehicle / reduction of tumor weight compared with vehicle: B16F10-bearing mice; for reduction of B16F10 melanoma growth compared with vehicle: QX-314 0.3% daily i.d. surrounding the tumor, BIBN4096 systemically once every two days (5 mg/kg i.p.); for reduction of tumor weight compared with vehicle: QX-314 0.3% daily i.d., BIBN4096 5 mg/kg i.p.
[2] = tested on: tumor-infiltrating CD8+ and CD4+ T-cells; format: in vivo, mice; conditions: for reduction of the proportion of PD1+Lag3+Tim3+ CD8+ T-cells: intra-tumoral, QX-314 0.3% daily i.d.
B16F10 cells = format: cell-based, mouse; conditions: BIBN4096 1-4 μM
B16F10 [3] = tested on: B16F10; parameters: species or system mice; conditions: mouse, in vivo
[4] = tested on: tumor-infiltrating CD8 and CD4 T cells; format: in vivo, mice
CGRP receptor = CGRP receptor (Mus musculus, UniProt Q9R1W5+Q9WTJ5); conditions: in vivo; cited from earlier work
[5] = tested on: cytotoxic CD8+ T-cells co-cultured with DRG neurons; experiment: DRG neuron / cytotoxic CD8+ T-cell co-culture; format: cell-based, mice; conditions: for INFγ+ CD8+ T-cells in co-culture with DRG neurons / TNFα+ CD8+ T-cells in co-culture with DRG neurons / proportion of PD1+Lag3+Tim3+ CD8+ T-cells in co-culture with DRG neurons: neuron stimulation, 48 h co-culture
Experimental: Naïve DRG neurons (1×10^4) were seeded in T cell media (supplemented with 0.05 ng/μL NGF (Life Technologies, #13257-019), 0.002 ng/μL GDNF (Peprotech, #450-51-10), and co-cultured with Tc1 CD8 T cells (1×10^5) in presence of IL-2 (575408). In some instances, co-cultures were stimulated with either of capsaicin (300 nM, twice/day) or KCl (40 mM). After 48 h, the cells were collected by centrifugation (5 min at 1300 rpm), stained and immunophenotyped by flow cytometry.

B16F10 [6] = format: in vivo, mice
CGRP = tested on: CGRP; parameters: species or system mice; conditions: capsaicin 1 μM; 3 h
[7] = tested on: cytotoxic CD8+ T-cells co-cultured with DRG neurons; experiment: DRG neuron / cytotoxic CD8+ T-cell co-culture; format: cell-based, mice; conditions: capsaicin without neurons

Chain of CGRP receptor (Q9R1W5 25-463): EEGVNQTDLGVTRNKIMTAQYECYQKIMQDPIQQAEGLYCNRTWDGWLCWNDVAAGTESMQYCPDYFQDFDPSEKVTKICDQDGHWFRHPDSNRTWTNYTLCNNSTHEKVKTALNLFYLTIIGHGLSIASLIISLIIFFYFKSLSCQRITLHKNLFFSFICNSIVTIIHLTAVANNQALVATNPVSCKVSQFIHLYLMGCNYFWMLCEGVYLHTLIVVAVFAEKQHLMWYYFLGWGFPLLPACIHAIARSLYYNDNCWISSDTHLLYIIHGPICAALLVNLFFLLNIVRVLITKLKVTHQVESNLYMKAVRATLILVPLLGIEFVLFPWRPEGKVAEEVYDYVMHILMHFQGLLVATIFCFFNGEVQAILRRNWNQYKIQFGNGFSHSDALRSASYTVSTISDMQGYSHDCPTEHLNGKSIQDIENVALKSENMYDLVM
Chain of CGRP receptor (Q9WTJ5 27-148): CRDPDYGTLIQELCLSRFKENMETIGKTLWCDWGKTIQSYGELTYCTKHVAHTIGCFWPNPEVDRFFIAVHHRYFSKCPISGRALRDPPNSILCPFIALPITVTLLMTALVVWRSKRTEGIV

SMILES: NCCCC[C@H](NC(=O)[C@@H](Cc1cc(Br)c(O)c(Br)c1)NC(=O)N1CCC(N2Cc3ccccc3NC2=O)CC1)C(=O)N1CCN(c2ccncc2)CC1 [BIBN4096]
- reduction of B16F10 melanoma growth compared with vehicle (B16F10 [1]): ~1.5 fold
- reduction of tumor weight compared with vehicle (B16F10 [1]): ~1.9 fold
- B16F10 tumor growth (B16F10 [1]; mouse, in vivo, ip, 5 mg/kg): decreased
- B16F10 tumor volume (B16F10 [1]; mouse, in vivo, ip, 5 mg/kg): decreased
- B16F10 tumor weight (B16F10 [1]; mouse, in vivo, ip, 5 mg/kg): decreased
- increase of intra-tumor number of INFγ+ CD8+ T-cells ([2]; BIBN4096 5 mg/kg i.p.): ~3 fold
- increase of intra-tumor number of total CD8+ T-cells ([2]; BIBN4096 5 mg/kg i.p.): ~3 fold
- intra-tumoral number of Granzyme B+ CD4+ T-cells ([2]; BIBN4096 5 mg/kg i.p.): increased
- intra-tumoral number of INFγ+ CD4+ T-cells ([2]; BIBN4096 5 mg/kg i.p.): increased
- intra-tumoral number of TNFα+ CD4+ T-cells ([2]; BIBN4096 5 mg/kg i.p.): increased
- intra-tumoral proportion of PD1+ CD4+ T-cells ([2]; BIBN4096 5 mg/kg i.p.): decreased
- intra-tumoral number of Granzyme B+ CD8+ T-cells ([2]; Example 1 dosing): increased
- intra-tumoral number of INFγ+ CD8+ T-cells ([2]; Example 1 dosing): increased
- intra-tumoral number of TNFα+ CD8+ T-cells ([2]; Example 1 dosing): increased
- intra-tumoral number of total CD8+ T-cells ([2]; Example 1 dosing): increased
- reduction of the proportion of PD1+Lag3+Tim3+ CD8+ T-cells ([2]; BIBN4096 5 mg/kg i.p.): ~2.5 fold
- intra-tumoral total CD4+ T-cells counts ([2]; mouse, in vivo): increased
- number/proportion of intra-tumor PD1+Lag3+Tim3+ CD8+ T-cells ([2]; mouse, in vivo, ip, 5 mg/kg): decreased
- cultured B16F10 survival (B16F10 cells): no impact
- B16F10 tumor growth (B16F10 [3]): reduced; also recorded: decreased
- B16F10 tumor volume (B16F10 [3]): reduced
- B16F10 tumor weight (B16F10 [3]): reduced
- intra-tumor PD1+ CD8 T cells ([4]; BIBN 5 mg/kg): decreased
- tumor infiltration of PD1+ CD4 T cells ([4]; BIBN 5 mg/kg i.d.): decreased
- infiltration of INFγ+ CD8 T cells ([4]; Example 2 dosing): increasing; also recorded: enhanced
- total number of intra-tumoral CD4 T cells ([4]; Example 2 dosing): enhanced; also recorded: increased
- tumor infiltration of INFγ+ CD4 T cells ([4]; Example 2 dosing): increased
- tumor infiltration of TNFα+ CD4 T cells ([4]; Example 2 dosing): decreased
- tumor infiltration of TNFα+ CD8 T cells ([4]; Example 2 dosing): increasing; also recorded: increased
- tumor infiltration of Granzyme B+ CD4 T cells ([4]; mouse, in vivo): increased
- tumor infiltration of Granzyme B+ CD8 T cells ([4]; mouse, in vivo): increasing; also recorded: increased
- IL2+ cultured cytotoxic CD8+ T-cells (cytotoxic CD8+ T-cells): do not impact
- INFγ+ cultured cytotoxic CD8+ T-cells (cytotoxic CD8+ T-cells): do not impact
- TNFα+ cultured cytotoxic CD8+ T-cells (cytotoxic CD8+ T-cells): do not impact
- proportion of PD1+Lag3+Tim3+ cultured cytotoxic CD8+ T-cells (cytotoxic CD8+ T-cells): do not impact
- survival of cultured cytotoxic CD8+ T-cells (cytotoxic CD8+ T-cells): do not impact
- effects of αCD3/αCD28 stimulation on CD8+ T-cells (cytotoxic CD8+ T-cells; BIBN4096 1-4 μM): do not prevent
- host anti-bacterial activity during microbe infection (CGRP receptor): rescues

SMILES: [Cl-].[K+] [KCl, potassium chloride]
- INFγ+ CD8+ T-cells in co-culture with DRG neurons [5]: decreased
- TNFα+ CD8+ T-cells in co-culture with DRG neurons [5]: decreased
- proportion of PD1+Lag3+Tim3+ CD8+ T-cells in co-culture with DRG neurons [5]: increased

SMILES: CC[N+](CC)(CC)CC(=O)Nc1c(C)cccc1C [QX-314]
- reduction of B16F10 melanoma growth compared with vehicle (B16F10 [1]): ~3.3 fold
- reduction of tumor weight compared with vehicle (B16F10 [1]): ~5.2 fold
- reduction of the proportion of PD1+Lag3+Tim3+ CD8+ T-cells ([2]; BIBN4096 5 mg/kg i.p.): ~15 fold
- rate at which vehicle exposed mice succumb relative to treated mice (B16F10 [6]; B16F10-bearing mice, p≤0.0001): 2.7 fold
- hazard ratio (survival) (B16F10 [6]; mouse, in vivo): 0.37
- IL2+ cultured cytotoxic CD8+ T-cells (cytotoxic CD8+ T-cells): do not impact
- INFγ+ cultured cytotoxic CD8+ T-cells (cytotoxic CD8+ T-cells): do not impact
- TNFα+ cultured cytotoxic CD8+ T-cells (cytotoxic CD8+ T-cells): do not impact
- proportion of PD1+Lag3+Tim3+ cultured cytotoxic CD8+ T-cells (cytotoxic CD8+ T-cells): do not impact
- survival of cultured cytotoxic CD8+ T-cells (cytotoxic CD8+ T-cells): do not impact

SMILES: COc1cc(CNC(=O)CCCC/C=C/C(C)C)ccc1O [capsaicin]
- CGRP levels in B16F10 tumor surrounding skin explant (CGRP): further enhanced
- IL2+ CD8+ T-cells in co-culture with DRG neurons ([5]; capsaicin-challenge): decreased
- proportion of PD1+ T cells in co-culture with DRG neurons ([5]; capsaicin-challenge): increases
- INFγ+ CD8+ T-cells in co-culture with DRG neurons [5]: reduced; also recorded: decreased
- TNFα+ CD8+ T-cells in co-culture with DRG neurons [5]: decreased; also recorded: reduced
- proportion of PD1+Lag3+Tim3+ CD8+ T-cells in co-culture with DRG neurons [5]: increased
- INFγ+ CD8+ T-cells in co-culture with DRG neurons ([5]; listed as Capsaicin): decreased
- TNFα+ CD8+ T-cells in co-culture with DRG neurons ([5]; listed as Capsaicin): decreased
- impact on CD8+ T-cells in the absence of neurons [7]: no measurable impact
